System: Plasmodium berghei
Assay: Luciferase/luciferin-expressing antifolate-resistant parasites were used to infect a culture of HepG2 cells that were pre-incubated with compounds. Infected hepatocytes emit light due to the luciferase reaction. Assay results are presented as the percent inhibition of light emission compared to control. […]
Assay type: functional
Settings: sporozoite; for IC90: read-out: LUCIFERASE INFECTION ASSAY - IC90

Row | Structure (SMILES) | IC90 [µM] | further results
1 | N#Cc1c(SCc2ccccc2)nc2c(c1-c1cccs1)CCCC2 | > 9.1 | IC50 (FFLUC_HILL_SLOPE 16.1, FFLUC_R_SQUARED 0.0835, PBLUC_HILL_SLOPE 1.89, PBLUC_R_SQUARED 0.544, read-out: LUCIFERASE INFECTION ASSAY - IC50): 3.48 µM
2 | Cc1cc(C)cc(NC(=O)CCN2c3ccccc3Sc3ccccc32)c1 | > 10 | IC50 (FFLUC_HILL_SLOPE 15.9, FFLUC_R_SQUARED 0.234, read-out: LUCIFERASE INFECTION ASSAY - IC50): > 10 µM
3 | O=C(NC(=O)c1csnn1)Nc1cc(C(F)(F)F)cc(C(F)(F)F)c1 | 2.08 | IC50 (FFLUC_HILL_SLOPE 15.9, FFLUC_R_SQUARED 0.485, HEPG2TOX_HILL_SLOPE 1.3, HEPG2TOX_R_SQUARED 0.92, PBLUC_HILL_SLOPE 2.07, PBLUC_R_SQUARED 0.679, read-out: LUCIFERASE INFECTION ASSAY - IC50): 0.72 µM
4 | CN(Cc1cccc(Cl)c1Cl)C(C(=O)Nc1ccc(Cl)c(C(F)(F)F)c1)c1ccccc1 (stereo not drawn) | > 10 | IC50 (FFLUC_HILL_SLOPE 15.8, FFLUC_R_SQUARED 0.442, HEPG2TOX_HILL_SLOPE 1.06, HEPG2TOX_R_SQUARED 0.598, PBLUC_HILL_SLOPE 0.733, PBLUC_R_SQUARED 0.344, read-out: LUCIFERASE INFECTION ASSAY - IC50): 7.46 µM
5 | Cc1ccc(/C=C/C(=O)NC2CCCc3ccccc32)o1 (stereo not drawn) | > 10 | IC50 (FFLUC_HILL_SLOPE 16.2, FFLUC_R_SQUARED 0.0896, read-out: LUCIFERASE INFECTION ASSAY - IC50): > 10 µM
6 | Cc1cc(/C=N/Nc2ccc(Cl)nn2)c(C)n1-c1ccccc1Cl | 9.4 | IC50 (FFLUC_HILL_SLOPE 16.1, FFLUC_R_SQUARED 0.664, PBLUC_HILL_SLOPE 12.5, PBLUC_R_SQUARED 0.559, read-out: LUCIFERASE INFECTION ASSAY - IC50): 7.88 µM
7 | CC(C)(C)NC(=S)N/N=C/c1ncc(C(F)(F)F)cc1Sc1ccc(Cl)cc1 | 4.33 | IC50 (FFLUC_HILL_SLOPE 15.8, FFLUC_R_SQUARED 0.683, HEPG2TOX_HILL_SLOPE 2.2, HEPG2TOX_R_SQUARED 0.982, PBLUC_HILL_SLOPE 3.41, PBLUC_R_SQUARED 0.827, read-out: LUCIFERASE INFECTION ASSAY - IC50): 2.27 µM
8 | Cc1cc(C(=O)CSc2nnc(Cc3cccc4ccccc34)n2C2CCCCC2)c(C)n1CC(F)(F)F | > 10 | IC50 (FFLUC_HILL_SLOPE 15.7, FFLUC_R_SQUARED 0.514, PBLUC_HILL_SLOPE 7.31, PBLUC_R_SQUARED 0.494, read-out: LUCIFERASE INFECTION ASSAY - IC50): 8.44 µM
9 | C#CCOc1ccccc1/C=C(\C#N)c1nc(N)nc(Nc2ccccc2)n1 | > 10 | IC50 (FFLUC_HILL_SLOPE 15.9, FFLUC_R_SQUARED 0.0727, HEPG2TOX_HILL_SLOPE 1.54, HEPG2TOX_R_SQUARED 0.555, PBLUC_HILL_SLOPE 1.18, PBLUC_R_SQUARED 0.297, read-out: LUCIFERASE INFECTION ASSAY - IC50): > 10 µM
10 | CC(C)(C)c1cc(C(=O)OCC(=O)NC(c2ccccc2)c2ccccc2)cc(C(C)(C)C)c1 | > 10 | IC50 (FFLUC_HILL_SLOPE 15.9, FFLUC_R_SQUARED 0.274, HEPG2TOX_HILL_SLOPE 1.64, HEPG2TOX_R_SQUARED 0.592, PBLUC_HILL_SLOPE 2.07, PBLUC_R_SQUARED 0.325, read-out: LUCIFERASE INFECTION ASSAY - IC50): 7.82 µM
11 | CCOc1ccc(NC(=S)N/N=C2/C(=O)c3cccc4cccc2c34)cc1 | > 10 | IC50 (FFLUC_HILL_SLOPE 16.1, FFLUC_R_SQUARED 0.465, PBLUC_HILL_SLOPE 2.76, PBLUC_R_SQUARED 0.814, read-out: LUCIFERASE INFECTION ASSAY - IC50): 4.61 µM
12 | CCN(CC)c1ccc(N=C2C=CC(=O)c3ccccc32)c(C)c1 | 4.59 | IC50 (FFLUC_HILL_SLOPE 15.8, FFLUC_R_SQUARED 0.584, HEPG2TOX_HILL_SLOPE 2.04, HEPG2TOX_R_SQUARED 0.961, PBLUC_HILL_SLOPE 2.09, PBLUC_R_SQUARED 0.781, read-out: LUCIFERASE INFECTION ASSAY - IC50): 1.61 µM
13 | CSc1nnc(-c2ccc(C(C)(C)C)cc2)[nH]1 | 10.9 | IC50 (FFLUC_HILL_SLOPE 15.7, FFLUC_R_SQUARED 0.752, PBLUC_HILL_SLOPE 2.05, PBLUC_R_SQUARED 0.759, read-out: LUCIFERASE INFECTION ASSAY - IC50): 3.73 µM
14 | Cn1c(C(C#N)c2nc(C#N)c(C#N)nc2Cl)nc2ccccc21 (stereo not drawn) | > 10 | IC50 (FFLUC_HILL_SLOPE 16, FFLUC_R_SQUARED 0.432, read-out: LUCIFERASE INFECTION ASSAY - IC50): > 10 µM
15 | Cc1sc2ncn(CC(=O)NC(c3ccc(F)cc3)c3cccs3)c(=O)c2c1-c1ccccc1 (stereo not drawn) | 9.83 | IC50 (FFLUC_HILL_SLOPE 15.7, FFLUC_R_SQUARED 0.526, PBLUC_HILL_SLOPE 17, PBLUC_R_SQUARED 0.112, read-out: LUCIFERASE INFECTION ASSAY - IC50): 8.64 µM
16 | O=c1cc(NCCC2=CCCCC2)c2ccccc2o1 | 3.21 | IC50 (FFLUC_HILL_SLOPE 16, FFLUC_R_SQUARED 0.221, HEPG2TOX_HILL_SLOPE 2.34, HEPG2TOX_R_SQUARED 0.809, PBLUC_HILL_SLOPE 2.17, PBLUC_R_SQUARED 0.461, read-out: LUCIFERASE INFECTION ASSAY - IC50): 1.17 µM
17 | COCCNC(=O)c1ccc(C2(CNc3ccc(OC)c(OC)c3)CC2)cc1 | 1.89 | IC50 (FFLUC_HILL_SLOPE 16.1, FFLUC_R_SQUARED 0.266, PBLUC_HILL_SLOPE 1.26, PBLUC_R_SQUARED 0.621, read-out: LUCIFERASE INFECTION ASSAY - IC50): 0.332 µM
18 | O=[N+]([O-])c1cnc(Sc2nnc(-c3ccco3)n2-c2ccc(OCc3ccccc3)cc2)s1 | > 6.91 | IC50 (FFLUC_HILL_SLOPE 16.1, FFLUC_R_SQUARED 0.469, read-out: LUCIFERASE INFECTION ASSAY - IC50): > 6.91 µM
19 | Cc1cc(/C=N/Nc2ccnc3cc(Cl)ccc23)c(C)n1-c1cc(S(=O)(=O)N2CCOCC2)ccc1N1CCCC1 | > 10 | IC50 (FFLUC_HILL_SLOPE 15.8, FFLUC_R_SQUARED 0.537, PBLUC_HILL_SLOPE 3.6, PBLUC_R_SQUARED 0.465, read-out: LUCIFERASE INFECTION ASSAY - IC50): 6.84 µM
20 | CC(C)CCNC(=O)C(=Cc1ccc(Oc2ccc(C(C)(C)C)cc2)c([N+](=O)[O-])c1)C(=O)NCCC(C)C | > 10 | IC50 (FFLUC_HILL_SLOPE 15.8, FFLUC_R_SQUARED 0.198, HEPG2TOX_HILL_SLOPE 15.2, 3.81, HEPG2TOX_R_SQUARED 0.607, 0.996, PBLUC_HILL_SLOPE 2.43, PBLUC_R_SQUARED 0.694, read-out: LUCIFERASE INFECTION ASSAY - IC50): 4.43 µM
21 | Cn1nc(-c2ccccc2)c(/C=N/O)c1Sc1ccc(C(C)(C)C)cc1 | > 9.03 | IC50 (FFLUC_HILL_SLOPE 15.8, FFLUC_R_SQUARED 0.096, HEPG2TOX_HILL_SLOPE 2.21, HEPG2TOX_R_SQUARED 0.952, PBLUC_HILL_SLOPE 13.8, PBLUC_R_SQUARED 0.121, read-out: LUCIFERASE INFECTION ASSAY - IC50): 8.79 µM
22 | CCN1N=C(c2ccc(OC)cc2)c2ccc(OC)c3cccc1c23 | 8.69 | IC50 (FFLUC_HILL_SLOPE 16.1, FFLUC_R_SQUARED 0.71, HEPG2TOX_HILL_SLOPE 5.83, HEPG2TOX_R_SQUARED 0.386, PBLUC_HILL_SLOPE 3.16, PBLUC_R_SQUARED 0.408, read-out: LUCIFERASE INFECTION ASSAY - IC50): 4.33 µM
23 | Cc1nn2c(nc(NCc3ccc(Cn4ccnc4)cc3)c3ccccc32)c1Cl | > 10 | IC50 (FFLUC_HILL_SLOPE 16.1, FFLUC_R_SQUARED 0.458, read-out: LUCIFERASE INFECTION ASSAY - IC50): > 10 µM
24 | Cc1ccc(-n2c(C)cc(-c3csc(NC(=O)c4cccc(S(=O)(=O)N5CCc6ccccc65)c4)n3)c2C)cc1 | > 10 | IC50 (FFLUC_HILL_SLOPE 15.8, FFLUC_R_SQUARED 0.357, read-out: LUCIFERASE INFECTION ASSAY - IC50): > 10 µM
25 | COC(=O)c1c(C)[nH]c(C(=O)C(C)Sc2nnc(Cc3cccc4ccccc34)n2C2CCCCC2)c1C (stereo not drawn) | > 10 | IC50 (FFLUC_HILL_SLOPE 16.1, FFLUC_R_SQUARED 0.161, read-out: LUCIFERASE INFECTION ASSAY - IC50): > 10 µM
26 | Cc1ccc(C(=O)c2c(NC(=O)CSc3nc4ccccc4n3CC(C)C)sc3c2CCCC3)cc1 | > 10 | IC50 (FFLUC_HILL_SLOPE 15.8, FFLUC_R_SQUARED 0.569, HEPG2TOX_HILL_SLOPE 0.459, HEPG2TOX_R_SQUARED 0.518, PBLUC_HILL_SLOPE 11.3, PBLUC_R_SQUARED 0.271, read-out: LUCIFERASE INFECTION ASSAY - IC50): > 10 µM
27 | CCCNC(=O)c1c(NC(=O)c2ccc(C(F)(F)F)cc2)nc2ccccn12 | 0.441 | IC50 (FFLUC_HILL_SLOPE 16.1, FFLUC_R_SQUARED 0.832, HEPG2TOX_HILL_SLOPE 0.765, HEPG2TOX_R_SQUARED 0.858, PBLUC_HILL_SLOPE 8.91, PBLUC_R_SQUARED 0.524, read-out: LUCIFERASE INFECTION ASSAY - IC50): 0.344 µM
28 | COc1cc(C(=O)N/N=C2\C(=O)Nc3ccc(C(C)C)cc32)cc(OC)c1OC | > 10 | IC50 (FFLUC_HILL_SLOPE 15.7, FFLUC_R_SQUARED 0.417, HEPG2TOX_HILL_SLOPE 3.31, HEPG2TOX_R_SQUARED 0.963, PBLUC_HILL_SLOPE 2.41, PBLUC_R_SQUARED 0.374, read-out: LUCIFERASE INFECTION ASSAY - IC50): 4.85 µM
29 | Cc1cc(C(=O)C(C)OC(=O)c2ccc(S(=O)(=O)N3CC(C)CC(C)C3)cc2)c(C)n1-c1ccc(Cl)cc1 (stereo not drawn) | 3.47 | IC50 (FFLUC_HILL_SLOPE 16.1, FFLUC_R_SQUARED 0.63, HEPG2TOX_HILL_SLOPE 1.41, HEPG2TOX_R_SQUARED 0.912, PBLUC_HILL_SLOPE 53.4, PBLUC_R_SQUARED 0.359, read-out: LUCIFERASE INFECTION ASSAY - IC50): 3.33 µM
